Data on 5 molecules can be found in US20230174464A1, “MYRISTOYL DERIVATIVES OF 9-AMINO-DOXYCYCLINE FOR TARGETING CANCER STEM CELLS AND PREVENTING METASTASIS” (LUNELLA BIOTECH, INC., priority 2020, published 2023).

In one data set the test system is MCF7 CSCs. The data set is described as follows: 3D-mammosphere formation assay. The data set is classed as cell-based, human. The conditions noted are these: for IC50: 5 days, non-adherent conditions, read-out: IC50 for inhibiting 3D anchorage-independent propagation (mammosphere formation). How it is done: For the 3D-Mammosphere Assay, a single cell suspension of MCF7 cells was prepared using enzymatic (lx Trypsin-EDTA, Sigma Aldrich) and manual disaggregation (25-gauge needle). Cells were then plated at a density of 500 cells/cm^2 in mammosphere medium (DMEM-F12/B27/EGF (20-ng/ml)/PenStrep) in non-adherent conditions, in culture dishes coated with (2-hydroxyethylmethacrylate) (poly-HEMA, Sigma). Cells were grown for 5 days and maintained in a humidified incubator at 37° C. at an atmospheric pressure in 5% (v/v) carbon dioxide/air. After 5 days in culture, spheres>50 μm were counted using an eye-piece graticule, and the percentage of cells plated which formed spheres was calculated and is referred to as percent mammosphere formation, normalized to vehicle-alone treated controls. Mammosphere assays were performed in triplicate and repeated three times independently.

Data set [1] concerns Staphylococcus aureus (ATCC 29213). In words: Bacterial growth assay (broth microdilution, resazurin). The data set is classed as cell-based. The settings on record: S. aureus, Gram-positive, 100-0.78 μM. The procedure:
(§1) Bacterial Growth Assays: Briefly, antibiotic activity was assessed using standard assay systems. The antibiotic activity of Doxycycline analogues was determined experimentally, using Resazurin (R7017; Sigma-Aldrich, Inc.) as a probe, in a 96-well plate format, using standard strains of E. coli and S. aureus. The minimum inhibitory concentration (MIC) for the studied compounds was determined using the broth microdilution method, the reference susceptibility test for rapidly growing aerobic or facultative microorganism. The assays were performed according to the Clinical and Laboratory Standards Institute (CLSI) guidelines. The test compounds and positive control (doxycycline, Sigma Aldrich #D1822) stock solutions were prepared at 25 mM in DMSO and serially diluted (2-fold dilution from 200-1.56 tiM) in cation adjusted Mueller Hinton Broth (MHB, Sigma Aldrich #90922) in 96 well transparent plates (VWR #734-2781) into a final volume of 50 μL/well. Staphylococcus aureus (ATCC 29213) and E. coli (ATCC 25922) cultures were grown overnight at 37° C. in Mueller Hinton Agar (MHA, Sigma Aldrich #70191). A single colony of each strain was then grown overnight at 37° C. in MHB until OD600˜0.6-0.8 and further diluted into MHB to a concentration of […] colony forming units (CFU)/mL, which was equivalent to an OD600˜0.01. Then, 50 μL of the diluted inoculums was transferred to the wells of the previously prepared 96-well plates containing the test compounds, negative control (1% DMSO in MHB) and positive control (doxycycline). Final wells volume was 100 μL, final concentrations for the testing compounds were between 100-0.78 μM and final microorganism concentration was 5×10^5 CFU/mL. Subsequently, 10 uL of one negative control well was plated in a petri dish containing MHA to check CFU and the purity of the cultures. The plates were incubated at 37° C. for 24 h after which 20 tit of resazurin solution (0.2 mg/mL) was added to the wells followed by 1 h30 min incubation at 37° C. The OD570 and OD600 were measured in a microplate reader (BMG FLUOstar Omega). […] MIC values were determined by three independent experiments.
In general terms: In broth dilution the organism is exposed to a series of concentrations in liquid medium.

A further data set relates to E. coli (ATCC 25922). Described as above. The data set is classed as cell-based, Escherichia coli. The settings on record: Gram-negative, 100-0.78 μM. How it is done:
as §1

In the next data set the test system is chick embryo. The data set is described as follows: CAM assay, embryo tolerability / toxicity. The data set is classed as in vivo. The settings on record: for Alive / Dead: number of embryos. The procedure:
a) Preparation of Chicken Embryos. […] At that moment (E9), the chorioallantoic membrane (CAM) was dropped down by drilling a small hole through the eggshell into the air sac, and a 1 cm^2 window was cut in the eggshell above the CAM.
e) Embryo Tolerability Assay. Before each administration, the treatment tolerability was evaluated by scoring the number of dead embryos.

Data set [2] concerns MCF7 cells. In words: Cell cycle analysis (FACS). The settings on record: MCF7 2D-monolayers, 72 hours, 10 μM. The data set is classed as cell-based, human. The procedure: Cell Cycle Analysis: Performed on MCF7 cells treated with Doxycycline, Doxy-Myr or vehicle-alone. Briefly, after trypsinization, the re-suspended cells were incubated with 10 ng/ml of Hoechst solution (Thermo Fisher Scientific) for 40 min at 37° C. under dark conditions. Following a 40 min period, the cells were washed and re-suspended in PBS Ca/Mg for acquisition on the Attune NxT flow cytometer (Thermo Scientific). 10,000 events per condition were analyzed. Gated cells were manually-categorized into cell-cycle stages.

Data set [3] concerns MCF7 cells. The data set is described as follows: Cell proliferation, xCELLigence RTCA. The data set is classed as cell-based, human. The settings on record: MCF7 2D-monolayers, relative to control (no treatment). The procedure: Cell Proliferation: Briefly, MCF7 cells or hTERT-BJ1 fibroblasts were seeded in each well (10,000 cells/well) and employed to assess the efficacy of Doxycycline and Doxy-Myr, using RTCA (real-time cell analysis), via the measurement of cell-induced electrical impedance plate (Acea Biosciences Inc.). This approach allows the quantification of the onset and kinetics of the cellular response. Experiments were repeated several times independently, using quadruplicate samples for each condition.

The subject of data set [4] is MCF7 cells. The data set is described as follows: Cell viability (SRB) assay, MCF7 2D-monolayers. The data set is classed as cell-based, human. The settings on record: 3 days, 5 to 20 μM. The procedure:
(§2) Cell Viability Assay: The Sulphorhodamine (SRB) assay is based on the measurement of cellular protein content. After treatment for 72 h in 96-well plates, (8,000 cells/well), cells were fixed with 10% trichloroacetic acid (TCA) for 1 hour in the cold room, and were dried overnight at room temperature. Then, cells were incubated with SRB for 15 min, washed twice with 1% acetic acid, and air dried for at least 1 hour. Finally, the protein-bound dye was dissolved in a 10 mM Tris, pH 8.8, solution and read using the plate reader at 540-nm.

Data set [5] has as its system normal human fibroblasts (hTERT-BJ1). The data set is described as follows: Cell viability (SRB) assay, normal fibroblasts 2D-monolayers. The data set is classed as cell-based. The settings on record: hTERT-BJ1 2D-monolayers, 3 days, 5 to 20 μM. The procedure: as §2
Data set [6] concerns CSC burden in early breast cancer patients. The settings on record: oral 200 mg/day for 14 days; cited from earlier work.

Where two headings read alike, the source gives them in different places.

As a reminder, the IC50 is the point on the concentration scale where inhibition reaches its midpoint. In the case of `CCCCCCCCCCCC(=O)Nc1ccc2c(c1O)C(=O)C1=C(O)[C@]3(O)C(=O)C(C(N)=O)=C(O)[C@@H](N(C)C)C3[C@@H](O)C1[C@H]2C` (stereo partly drawn) [Doxy-Laur, (4S,5S,6R,12aS)-4-(dimethylamino)-9-(dodecanoylamino)-3,5,10,12,12a-pentahydroxy-6-methyl-1,11-dioxo-4a,5,5a,6-tetrahydro-4H-tetracene-2-carboxamide], in the data set with MCF7 CSCs (Homo sapiens, MCF7, 120 h), the half-inhibitory concentration (IC50) is 5.8 µM. For the same molecule, the “antibiotic activity (growth inhibition)” value (in data set [1]; in the data set on E. coli (ATCC 25922)) was “did not show any antibiotic activity” in each case.

In the case of `CCCCCCCCCCCCCC(=O)Nc1ccc2c(c1O)C(=O)C1=C(O)[C@]3(O)C(=O)C(C(N)=O)=C(O)[C@@H](N(C)C)C3[C@@H](O)C1[C@H]2C` (stereo partly drawn) [Doxy-Myr, (4S,5S,6R,12aS)-4-(dimethylamino)-3,5,10,12,12a-pentahydroxy-6-methyl-1,11-dioxo-9-(tetradecanoylamino)-4a,5,5a,6-tetrahydro-4H-tetracene-2-carboxamide], in the data set with chick embryo (0.125 mM), the “% Alive” value is 78.57%, the “% Dead” value is listed as 21.43%, the Alive came out at 11 and the Dead is 3. In the data set on chick embryo (0.250 mM), the “% Alive” value turned out to be 92.31%, the “% Dead” value was 7.69%, the Alive is reported as 12 and the Dead is 1. Also, the “embryo toxicity” value in the data set with chick embryo (CAM assay) is listed as “little-to-no embryo toxicity”. For the same molecule, the IC50 with MCF7 CSCs was determined as 3.46 µM. Also, the “effect on cell cycle progression” value in the data set with MCF7 cells [2] is on record as “did not have any significant effects on reducing cell cycle progression”. For the same molecule, the effect on proliferation entry with MCF7 cells [3] is “did not inhibit the proliferation”. Further, the “antibiotic activity (growth inhibition)” value in [1] is “did not show any antibiotic activity”. Moreover, the “effect on cell viability” value in the data set on MCF7 cells [4] was “no appreciable effects on cell viability”. Besides, the “effect on cell viability” value in data set [5] is recorded as “no appreciable effects on cell viability”. Besides, in the data set on E. coli (ATCC 25922), the “antibiotic activity (growth inhibition)” value is “did not show any antibiotic activity”.

As to `CCCCCCCCCCCCCCCC(=O)Nc1ccc2c(c1O)C(=O)C1=C(O)[C@]3(O)C(=O)C(C(N)=O)=C(O)[C@@H](N(C)C)C3[C@@H](O)C1[C@H]2C` (stereo partly drawn) [Doxy-Pal, (4S,5S,6R,12 aS)-4-(dimethylamino)-9-(hexadecanoylamino)-3,5,10,12,12a-pentahydroxy-6-methyl-1,11-dioxo-4a,5,5 a,6-tetrahydro-4H-tetracene-2-carboxamide], the half-inhibitory concentration (IC50) with MCF7 CSCs (Homo sapiens, MCF7, 120 h) was determined as 10.4 µM. For the same molecule, the “antibiotic activity (growth inhibition)” value (in data set [1]; with E. coli (ATCC 25922)) was “did not show any antibiotic activity” each time.

Take `C[C@H]1c2ccc(NC(=O)CCCCC[P+](c3ccccc3)(c3ccccc3)c3ccccc3)c(O)c2C(=O)C2=C(O)[C@]3(O)C(=O)C(C(N)=O)=C(O)[C@@H](N(C)C)C3[C@@H](O)C21.C[C@H]1c2ccc(NC(=O)CCCCC[P+](c3ccccc3)(c3ccccc3)c3ccccc3)c(O)c2C(=O)C2=C(O)[C@]3(O)C(=O)C(C(N)=O)=C(O)[C@@H](N(C)C)C3[C@@H](O)C21.O=C([O-])C(=O)[O-]` (stereo partly shown) [Doxy-TPP]: in the data set on MCF7 CSCs, the “inhibitory potency compared with Doxycycline” value is listed as “not more potent that Doxycycline”.

Regarding `C[C@H]1c2cccc(O)c2C(=O)C2=C(O)[C@]3(O)C(=O)C(C(N)=O)=C(O)[C@@H](N(C)C)C3[C@@H](O)C21` (stereo partly drawn) [Doxycycline, (4S,5 S,6R,12aS)-4-(dimethylamino)-3,5,10,12,12a-pentahydroxy-6-methyl-1,11-dioxo-4a,5,5 a,6-tetrahydro-4H-tetracene-2-carboxamide], the figures for the “% Dead” value in the data set on chick embryo (0.125 mM) and in the data set on chick embryo (0.250 mM) were 15.38% and 23.08%, respectively. For the same molecule, the Dead with chick embryo (0.125 mM) worked out at 2; in the data set with chick embryo (0.250 mM), 3. In addition, the “embryo toxicity” value in the data set with chick embryo (in vivo) is “little-to-no embryo toxicity”. Besides, in the data set on MCF7 cells [3], the effect on proliferation entry is reported as “did not inhibit the proliferation”. In addition, the “antibiotic activity (growth inhibition)” value in data set [1] is “potently and effectively inhibits the growth”; in the data set with E. coli (ATCC 25922), “potently and effectively inhibits the growth”. For the same molecule, in data set [6], the positive response rate is reported as around 90%. Besides, the “effect on cell viability” value (in the data set with MCF7 cells [4]; in data set [5]) was “no appreciable effects on cell viability” in each case.
